Experimental data published in patent US20050282757A1, “Peptide boronic acid compounds useful in anticoagulation” (Trigen Limited, priority 2002, published 2005).
≈ marks a conversion by molar mass, not a printed value. Where “and” joins values, the source holds several entries; their conditions need not be identical. Equal entries are not always repeated. Entries after “also recorded” stand apart in the source; their conditions may differ.

How the values were obtained:
thrombin time [1] = experiment: Intraduodenal absorption in rat, thrombin time (Examples 42 and 44); assay type: in vivo, male Wistar rats; design: Mean increase in thrombin time / Thrombin time increase: unit not given here; conditions: for Group mean thrombin time (s ± sd): 20 mg/kg intraduodenal
Procedure: • Place 10 mg of the relevant compound in an Eppendorf cup • Add 0.5 mL ethanol and shake for 10 minutes • Sonicate for 10 minutes • Add 1.5 mL of buffer • Shake for additional 15 minutes • Resulting target concentration: 5 mg/mL B. Intraduodenal Studies
The intraduodenal studies were performed using male Wistar rats, approximately 8 weeks of age and weighing between 250 and 300 g.
Food was withheld overnight prior to dosing and returned approximately 2 hours post-dose. Water was available ad libitum.
Animals were anaesthetised using gaseous halothane. A small incision was made in the abdomen and the duodenum located. Each animal received a single administration of control or test article by injection directly into the duodenum, using a constant dose volume of 4 mL/kg. Following administration the incision was closed using surgical staples.
Individual dose volumes were based on individual body weights, obtained on the day of dosing. Treatments employed for the study were as follows:
(§1) Approximately 0.6 mL of blood was collected via a tail vein into 3.8% tri sodium citrate tubes approximately 48 hours prior to dosing and again at 0.5, 1, 2, 4 and 8 hours post-dose.
(§2) Plasma was prepared by centrifugation at […] for 10 minutes at 4° C. Plasma was stored frozen (nominally −20° C.) prior to analysis in an automated coagulometer.
The thrombin times determined in example 42 were analysed to determine the standard deviation for increase in thrombin time, expressed as a percentage of the mean value (this is sometimes called the ‘coefficient of variation’).

thrombin time [2] = experiment: Oral absorption in rat, thrombin time (Example 43); assay type: in vivo, male Wistar rats; conditions: 20 mg/kg oral gavage
Procedure: The procedure of Example 42 was followed.
The per-oral studies were performed using male Wistar rats, approximately 8 weeks of age and weighing between 250 and 300 g.
Food was withheld overnight prior to dosing and returned approximately 2 hours post-dose. Water was available adlibitum.
Each animal received a single administration of control or test article by oral gavage, using a constant dose volume of 4 mL/kg.
Individual dose volumes were based on individual body weights, obtained on the day of dosing.
as §1, §2

[3] = Hydrolysis under HPLC assay conditions; assay type: physicochemical; conditions: acid conditions of an HPLC assay / HPLC sample preparation
Description: It has been discovered that TRI 50b tends to hydrolyse.

[4] = Maximum aqueous solubility by UV after shaking in water at 37° C.; assay type: physicochemical; conditions: read-out: Solubility when dissolved at 50 mg/ml
thrombin time and APTT = experiment: Oral administration in dog, PK/PD (Example 45)
Procedure: Three female and three male dogs were used for each leg of the study. The weight range of the dogs was 8-18 kg.
The PD was measured as thrombin time and APTT using an automated coagulometer. Plasma concentrations were measured using an LCMS/MS method.
The dose was tailored on an individual basis for each dog.

[5] = Stability in simulated gastric fluid (Example 51); assay type: in vitro ADME; conditions: 37° C.
Procedure: Approximately 2.5 mg of the compound is dissolved in 50 ml gastric fluid (37° C., according to BP with pepsin, an aliquot is transferred into an HPLC-vial and analysed immediately (time period =0). The aliquots for further time periods in HPLC-vials are stored in an autosampler at 37° C. […]

[6] = individual rats dosed intraduodenally, in s
[7] = gastric juice 0 min, initial set to 100

COCCC[C@H](NC(=O)[C@@H]1CCCN1C(=O)[C@@H](Cc1ccccc1)NC(=O)OCc1ccccc1)B([O-])O.[K+] [Potassium Salt of TRI50C]
Group mean thrombin time (s ± sd) (thrombin time [1]; 0.5 hour): 26.5 ± 3.64 s | Group mean thrombin time (s ± sd) (thrombin time [1]; 1 hour): 24.4 ± 3.35 s | Group mean thrombin time (s ± sd) (thrombin time [1]; 2 hour): 23.2 ± 0.83 s | Group mean thrombin time (s ± sd) (thrombin time [1]; 4 hour): 23.2 ± 2.36 s | Group mean thrombin time (s ± sd) (thrombin time [1]; 8 hour): 21.6 ± 0.70 s | Group mean thrombin time (s ± sd) (thrombin time [1]; −48 hour (pre-dose)): 20.0 ± 1.92 s | Group mean thrombin times (s ± sd) (thrombin time [2]; 0.5 hour): 24.7 ± 2.18 s | Group mean thrombin times (s ± sd) (thrombin time [2]; 1 hour): 24.1 ± 1.87 s | Group mean thrombin times (s ± sd) (thrombin time [2]; 2 hour): 22.9 ± 3.29 s | Group mean thrombin times (s ± sd) (thrombin time [2]; 4 hour): 23.2 ± 1.24 s | Group mean thrombin times (s ± sd) (thrombin time [2]; 8 hour): 23.8 ± 1.79 s | Group mean thrombin times (s ± sd) (thrombin time [2]; −48 hour (pre-dose)): 22.0 ± 1.40 s

COCCC[C@H](NC(=O)[C@@H]1CCCN1C(=O)[C@@H](Cc1ccccc1)NC(=O)OCc1ccccc1)B1OC(C)(C)C(C)(C)O1 [TRI 50b, Cbz-(R)-Phe-Pro-BoroMpg-OPinacol]
stability under HPLC assay conditions [3]: converted to the acid form with a short half life

COCCC[C@H](NC(=O)[C@@H]1CCCN1C(=O)[C@@H](Cc1ccccc1)NC(=O)OCc1ccccc1)B(O)O [TRI 50c, Cbz-(R)-Phe-(S)-Pro-(R)-Mpg-B(OH)2]
Group mean thrombin time (s ± sd) (thrombin time [1]; 0.5 hour): 42.1 ± 19.54 s | Group mean thrombin time (s ± sd) (thrombin time [1]; 1 hour): 27.5 ± 9.42 s | Group mean thrombin time (s ± sd) (thrombin time [1]; 2 hour): 23.5 ± 6.40 s | Group mean thrombin time (s ± sd) (thrombin time [1]; 4 hour): 21.8 ± 2.33 s | Group mean thrombin time (s ± sd) (thrombin time [1]; 8 hour): 21.5 ± 2.67 s | Group mean thrombin time (s ± sd) (thrombin time [1]; −48 hour (pre-dose)): 21.3 ± 2.69 s | Mean increase in thrombin time (thrombin time [1]; 0.5 h minus 0 h, intraduodenal): 20.26 | Thrombin time, 0 h (thrombin time [1]; [6]): 23.70 and 23.10 and 16.85 and 21.67 | Thrombin time, 0.5 h (thrombin time [1]; [6]): 40.02 and 40.20 and 23.60 and 62.55 | Thrombin time increase (thrombin time [1]; individual rats, 0.5 h minus 0 h): 16.32 and 17.10 and 6.75 and 40.88 | solubility [4]: 8 mM (≈ 4200 µg/mL) | absorption as estimated by dynamic response (TT) (thrombin time and APTT): Two animals failed to significantly absorb TRI 50c | time of peak thrombin time post dose (thrombin time and APTT): 1.5 h | mean thrombin clotting time at peak (C max) (thrombin time and APTT; base line 15 seconds (calcium salt), 15.4 seconds (TRI 50c)): 34.2 s | tolerance (thrombin time and APTT; enterically coated gelatine capsules): tolerated well with no adverse events; also recorded: well tolerated orally | Group mean thrombin times (s ± sd) (thrombin time [2]; 0.5 hour): 26.8 ± 1.96 s | Group mean thrombin times (s ± sd) (thrombin time [2]; 1 hour): 23.3 ± 3.68 s | Group mean thrombin times (s ± sd) (thrombin time [2]; 2 hour): 23.9 ± 2.25 s | Group mean thrombin times (s ± sd) (thrombin time [2]; 4 hour): 23.1 ± 2.70 s | Group mean thrombin times (s ± sd) (thrombin time [2]; 8 hour): 25.1 ± 0.33 s | Group mean thrombin times (s ± sd) (thrombin time [2]; −48 hour (pre-dose)): 22.9 ± 2.28 s

COCCC[C@H](NC(=O)[C@@H]1CCCN1C(=O)[C@@H](Cc1ccc(F)cc1)NC(=O)OCc1ccccc1)B([O-])O.[Na+] [TRIf monosodium salt]
results, peak at rt 14.5 min [5, 7]: 100.0 peak-area-% | results, peak at rt 17.3 min [5, 7]: 100.0 peak-area-% | results, peak at rt […] [5, 7]: 100.0 peak-area-% | results, peak at rt 14.5 min ([5]; gastric juice 35 min): 89.6 peak-area-% | results, peak at rt 17.3 min ([5]; gastric juice 35 min): 99.1 peak-area-% | results, peak at rt […] ([5]; gastric juice 35 min): 101.4 peak-area-% | results, peak at rt 14.5 min ([5]; gastric juice 70 min): 84.6 peak-area-% | results, peak at rt 17.3 min ([5]; gastric juice 70 min): 101.8 peak-area-% | results, peak at rt […] ([5]; gastric juice 70 min): 101.1 peak-area-% | results, peak at rt 14.5 min ([5]; gastric juice 105 min): 94.2 peak-area-% | results, peak at rt 17.3 min ([5]; gastric juice 105 min): 100.3 peak-area-% | results, peak at rt […] ([5]; gastric juice 105 min): 97.7 peak-area-% | results, peak at rt 14.5 min ([5]; gastric juice 140 min): 93.9 peak-area-% | results, peak at rt 17.3 min ([5]; gastric juice 140 min): 91.4 peak-area-% | results, peak at rt […] ([5]; gastric juice 140 min): 94.6 peak-area-% | results, peak at rt 14.5 min ([5]; gastric juice 175 min): 94.9 peak-area-% | results, peak at rt 17.3 min ([5]; gastric juice 175 min): 97.7 peak-area-% | results, peak at rt […] ([5]; gastric juice 175 min): 98.6 peak-area-% | results, peak at rt 14.5 min ([5]; gastric juice 210 min): 98.1 peak-area-% | results, peak at rt 17.3 min ([5]; gastric juice 210 min): 94.1 peak-area-% | results, peak at rt […] ([5]; gastric juice 210 min): 94.4 peak-area-%
